Data taken from patent US4102886A, “Process for the preparation of benzo(a)quinolizidine derivatives” (priority 1974, dated 1978).

How the values were obtained:
[1] = system: experimentally provoked fever; test: Antipyretic activity (experimentally provoked fever); format: in vivo; parameters: unit not given here; details: 25 mg./kg. p.o.
From the text: Besides their antiphlogistic activities, some of the benzo(a)quinolizidine derivatives exert antipyretic effects as well. On the basis of the tests performed on experimentally provoked fever, the antipyretic activities of the compounds according to the invention surpass the effect of amidazophenum.

Acute toxicity tests = format: in vivo; details: rat, in vivo, po; rats, Litchfield-Wildoxon method
Protocol: The acute toxicity values of the compounds were determined on rats, after oral administration. The LD50 values were calculated according to the Litchfield-Wildoxon method.

central nervious system = test: Narcosis potentiating effect; format: in vivo
kaolin-induced oedema = test: Inhibition of kaolin-induced oedema; format: in vivo; details: 2 hours
Protocol: (§1) Inhibition of Kaolin- and carrageenin-induced oedema
(§2) The tests were carried out on groups each consisting of at least 10 animals. The percentage inhibition of oedema, in relation to the untreated controls, was determined for each of the animals, and the average values were calculated.

[2] = system: carrageenin-induced oedema; test: Inhibition of carrageenin-induced oedema; format: in vivo; details: 1.5 hours
Protocol: as §1, §2

Cotton granuloma = Cotton granuloma test; format: in vivo; details: 100 mg./kg.
[3] = Determination of ulcer index
[4] = Inhibition of kaolin-induced oedema; format: in vivo; details: in vivo; LD50/ED50; read-out: Therapeutical index LD50/ED50, kaolin-oedema
Protocol: as §1, §2

[5] = Inhibition of carrageenin-induced oedema; format: in vivo; details: in vivo; LD50/ED50; read-out: Therapeutical index LD50/ED50, carrageenin-oedema
Protocol: as §1, §2

[6] = system: serotonine-induced oedema; test: Tests performed on serotonine-induced oedema; format: in vivo
Protocol: Tests performed on serotonine-induced oedema
The tests were carried out on groups each consisting of 10 animals. The percentage inhibition of oedema, in relation to the untreated controls, was determined for each of the animals. The data listed in Table 3 are the averages of the inhibition values.

[7] = Analgesic effect by the hot-plate test; format: in vivo; details: 50 mg./kg. p.o.

Row | SMILES | LD50 (Acute toxicity tests) [mg/kg] | Inhibition of kaolin-induced oedema 2 hours after administration (kaolin-induced oedema; 100 mg./kg. p.o.) [%] | Inhibition of carrageenin-induced oedema 1.5 hours after administration ([2]; 100 mg./kg. p.o.) [%] | Erosion ([3]; female) | Ulcer ([3]; female) | Erosion ([3]; male) | Ulcer ([3]; male) | Inhibition of kaolin-induced oedema 2 hours after administration (kaolin-induced oedema; 25 mg./kg. p.o.) [%] | Inhibition of kaolin-induced oedema 2 hours after administration (kaolin-induced oedema; 50 mg./kg. p.o.) [%] | Inhibition of kaolin-induced oedema 2 hours after administration (kaolin-induced oedema; 75 mg./kg. p.o.) [%] | Inhibition of carrageenin-induced oedema 1.5 hours after administration ([2]; 50 mg./kg. p.o.) [%] | Percentage inhibition 1 hour after administration (serotonine-induced oedema) ([6]; 100 mg./kg. p.o.) [%] | Prolongation of the sleep period in relation to the untreated controls, % (central nervious system; 50 mg./kg. p.o.) [%] | also measured
1 | Cc1c(N(C)C)c(=O)n(-c2ccccc2)n1C [Amidazophenum] |  |  |  |  |  |  |  |  |  |  |  |  |  | Variation of body temperature ([1]; 1 hour after administration): -1.17; Variation of body temperature ([1]; 2 hours after administration): -0.94; Variation of body temperature ([1]; 3 hours after administration): -0.95
2 | CC(=O)Oc1ccccc1C(=O)O [Aspirin, reference compound] | 1700 |  |  |  |  |  |  |  |  |  |  |  |  | 
3 | CCCC(C)(COC(N)=O)COC(N)=O [Meprobamate, reference compound] |  |  |  |  |  |  |  |  |  |  |  |  |  | Prolongation of the sleep period in relation to the untreated controls, % (central nervious system; 20 mg./kg. p.o.): 110.2%
4 | O=C(O)c1ccccc1O [Na-salicylate, reference compound] |  | 10.5 | 16.2 | 3/10 | 2/10 | 1/10 | 4/10 |  |  |  |  |  |  | Effect, % (cotton granuloma test) (Cotton granuloma): 25.5%
5 | COc1cc2c(cc1OC)C1CC(=O)C(CCC#N)CN1CC2 (stereo not drawn) [SCT-1, 2-Oxo-3-(β-cyano-ethyl)-9,10-dimethoxy-1,2,3,4,6,7-hexahydro-11bH-benzo(a)quinolizidine] | 620 | 47.8 | 37.7 | 4/10 | 2/10 | 3/10 | 1/10 | 20.5 | 21.4 | 24.8 | 24.2 | 57.8 | 207.6 | selectivity ratio [4]: 12.4; selectivity ratio [5]: 6.7; Inhibition of carrageenin-induced oedema 1.5 hours after administration ([2]; 75 mg./kg. p.o.): 25.7%; Percentage inhibition 1 hour after administration (serotonine-induced oedema) ([6]; 50 mg./kg. p.o.): 22.4%; Prolongation of the sleep period in relation to the untreated controls, % (central nervious system; 25 mg./kg. p.o.): 132.8%
6 | COC(=O)CCC1CN2CCc3cc(OC)c(OC)cc3C2CC1=O (stereo not drawn) [SCT-2, 2-Oxo-3-(β-methoxycarbonyl-ethyl)-9,10-dimethoxy-1,2,3,4,6,7-hexahydro-11bH-benzo(a)quinolizidine] |  |  | 17.0 |  |  |  |  | 5.8 | 21.4 | 24.7 | 14.3 | 16.0 | 28.3 | Inhibition of carrageenin-induced oedema 1.5 hours after administration ([2]; 75 mg./kg. p.o.): 2.8%; Prolongation of the reaction time, % (2 hours after administration) [7]: 26.4%
7 | CCOc1cc2c(cc1OCC)C1CC(=O)C(CCC#N)CN1CC2 (stereo not drawn) [SCT-3, 2-Oxo-3-(β-cyano-ethyl)-9,10-diethoxy-1,2,3,4,6,7-hexahydro-11bH-benzo(a)quinolizidine] | 780 | 45.9 | 53.7 | 4/10 | 0/10 | 6/10 | 1/10 | 17.3 | 19.4 | 48.9 | 41.5 | 47.0 | 240.2 | selectivity ratio [4]: 15; selectivity ratio [5]: 19.8; Inhibition of carrageenin-induced oedema 1.5 hours after administration ([2]; 25 mg./kg. p.o.): 25.1%; Percentage inhibition 1 hour after administration (serotonine-induced oedema) ([6]; 50 mg./kg. p.o.): 36.2%; Prolongation of the reaction time, % (2 hours after administration) [7]: 33.9%; Prolongation of the sleep period in relation to the untreated controls, % (central nervious system; 25 mg./kg. p.o.): 131.7%
